In ChEMBL document CHEMBL1123975, “2-Phenylpyrroles as conformationally restricted benzamide analogues. A new class of potential antipsychotics. 2” (J Med Chem, 1988):

Tests used:
[1] = tested on: Rattus norvegicus; experiment: Suppression of conditioned avoidance behavior in rats after ip administration; type: functional
[2] = target: D(2) dopamine receptor (Rattus norvegicus, UniProt P61169); experiment: Displacement of [3H]-Spiperone from Dopamine receptor D2 in rat striatum
[3] = tested on: Rattus norvegicus; experiment: Suppression of conditioned avoidance behavior in rats following p.o. administration.; type: functional; conditions: po
[4] = tested on: Mus musculus; experiment: Antagonism of apomorphine-induced climbing behavior in mice after ip administration; type: functional
[5] = Activity calculated as Na+ ratio [IC50 (+Na+) / IC50 (-Na+)]; type: functional
[6] = target: Serotonin 2 (5-HT2) receptor (Rattus norvegicus, UniProt P30994+P08909+P14842); experiment: Potency to displace [3H]- Spiperone from 5-hydroxytryptamine 2 receptor […]
[7] = target: T1, Adrenergic receptor alpha-1 (Rattus norvegicus, UniProt P15823+P23944+P43140); experiment: Potency to displace [3H]- WB-4101 from alpha-1 adrenergic receptor in rat striatum
T1 sequence (P15823 whole entry): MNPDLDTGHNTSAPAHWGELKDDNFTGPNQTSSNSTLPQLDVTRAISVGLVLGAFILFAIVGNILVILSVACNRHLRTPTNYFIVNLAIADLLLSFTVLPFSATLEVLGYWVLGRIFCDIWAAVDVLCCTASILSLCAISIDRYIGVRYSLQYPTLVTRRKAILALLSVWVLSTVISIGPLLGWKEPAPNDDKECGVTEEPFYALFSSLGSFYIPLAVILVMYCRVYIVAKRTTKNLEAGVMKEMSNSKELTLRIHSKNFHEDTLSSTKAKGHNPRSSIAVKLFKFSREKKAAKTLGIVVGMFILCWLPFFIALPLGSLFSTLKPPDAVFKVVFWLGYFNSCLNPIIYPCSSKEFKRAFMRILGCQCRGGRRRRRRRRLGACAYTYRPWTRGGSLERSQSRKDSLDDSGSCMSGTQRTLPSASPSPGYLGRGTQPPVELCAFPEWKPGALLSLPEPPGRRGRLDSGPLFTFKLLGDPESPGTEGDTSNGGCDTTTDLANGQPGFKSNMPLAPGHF
T1 sequence (P23944 whole entry): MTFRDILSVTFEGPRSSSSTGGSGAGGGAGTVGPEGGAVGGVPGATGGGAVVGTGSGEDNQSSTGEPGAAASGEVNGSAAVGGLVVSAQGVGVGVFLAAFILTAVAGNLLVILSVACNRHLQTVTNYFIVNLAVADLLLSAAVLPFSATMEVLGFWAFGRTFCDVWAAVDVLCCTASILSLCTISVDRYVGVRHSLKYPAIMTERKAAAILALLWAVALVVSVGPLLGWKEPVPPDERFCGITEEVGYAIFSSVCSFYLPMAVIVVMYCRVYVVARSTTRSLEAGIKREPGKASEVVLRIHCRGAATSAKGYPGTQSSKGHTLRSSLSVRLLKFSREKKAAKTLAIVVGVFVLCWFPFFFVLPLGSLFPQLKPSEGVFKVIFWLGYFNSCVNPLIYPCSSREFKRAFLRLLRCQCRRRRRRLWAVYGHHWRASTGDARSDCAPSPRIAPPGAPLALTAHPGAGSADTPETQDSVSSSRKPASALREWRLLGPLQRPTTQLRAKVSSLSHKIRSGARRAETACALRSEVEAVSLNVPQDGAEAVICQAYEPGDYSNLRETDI
T1 sequence (P43140 whole entry): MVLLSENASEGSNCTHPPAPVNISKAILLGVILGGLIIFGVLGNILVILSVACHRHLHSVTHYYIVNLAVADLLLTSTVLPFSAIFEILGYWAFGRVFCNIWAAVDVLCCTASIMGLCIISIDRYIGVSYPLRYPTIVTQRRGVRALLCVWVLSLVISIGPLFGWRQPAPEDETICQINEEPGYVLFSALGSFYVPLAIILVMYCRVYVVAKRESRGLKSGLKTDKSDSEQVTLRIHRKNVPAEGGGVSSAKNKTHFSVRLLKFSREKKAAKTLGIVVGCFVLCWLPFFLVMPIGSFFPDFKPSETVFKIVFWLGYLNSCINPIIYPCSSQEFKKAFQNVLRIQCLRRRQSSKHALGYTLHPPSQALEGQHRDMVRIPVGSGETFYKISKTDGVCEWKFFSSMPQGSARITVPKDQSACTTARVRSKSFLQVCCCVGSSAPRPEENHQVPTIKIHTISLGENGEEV

[8] = tested on: Rattus norvegicus; experiment: Induction of catalepsy in rats when administered intraperitoneally 4 hr prior to measurement to groups of nine animals; type: functional; conditions: ip

D(2) dopamine receptor, sequence (P61169 whole entry): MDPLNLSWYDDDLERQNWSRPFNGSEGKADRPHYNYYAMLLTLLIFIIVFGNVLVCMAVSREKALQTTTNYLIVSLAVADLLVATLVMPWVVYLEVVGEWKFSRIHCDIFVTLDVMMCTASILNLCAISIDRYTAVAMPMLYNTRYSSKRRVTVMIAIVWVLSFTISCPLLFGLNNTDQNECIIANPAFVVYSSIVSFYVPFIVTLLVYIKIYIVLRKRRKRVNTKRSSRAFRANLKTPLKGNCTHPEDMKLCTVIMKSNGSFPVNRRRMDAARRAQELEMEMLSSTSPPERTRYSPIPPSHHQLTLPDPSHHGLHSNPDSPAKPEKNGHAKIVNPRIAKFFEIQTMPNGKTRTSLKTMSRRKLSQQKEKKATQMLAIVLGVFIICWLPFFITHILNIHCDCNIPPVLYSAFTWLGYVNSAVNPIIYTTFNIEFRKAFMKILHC

COc1ccccc1-c1ccc(CN2CCN(c3ccccc3OC)CC2)[nH]1
ED50 [1]: > 100 mg/kg | Ki [2]: 6.5 nM

COc1ccccc1N1CCN(Cc2ccc(-c3ccccc3)n2-c2ccccc2)CC1
Ki [2]: 160 nM | ED50 [3]: > 100 mg/kg

c1ccc(-c2ccc(CN3CCN(c4cccc5c4OCCCO5)CC3)[nH]2)cc1
ED50 [4]: 0.2 mg/kg | Ki [2]: 0.68 nM | ED50 [3]: 12 mg/kg

O=C(NCCN1CCN(c2cccc3ccoc23)CC1)c1ccc(F)cc1
Na+ ratio [5]: 2.5 | Ki [6]: 29 nM | ED50 [4]: 1.8 mg/kg | ED50 [1]: 2.7 mg/kg | Ki [7]: 9.7 nM | ED50 [8]: > 30 mg/kg | Ki [2]: 7.1 nM | ED50 [3]: 21 mg/kg

CCS(=O)(=O)c1ccc(OC)c(-c2ccc(CN3CCN(c4ccccc4OC)CC3)[nH]2)c1
Ki [2]: 7 nM

Fc1ccc(-c2ccc(CN3CCN(c4ccc(F)cc4)CC3)[nH]2)cc1
Ki [2]: 16 nM | ED50 [3]: 40 mg/kg

COc1ccccc1N1CCN(Cc2ccc(-c3ccc(F)cc3)n2C)CC1
Ki [2]: 20 nM

COc1ccccc1N1CCN(Cc2ccc(-c3ccc(F)cc3)n2CCO)CC1
Ki [2]: 52 nM | ED50 [3]: > 100 mg/kg

COc1ccccc1N1CCN(Cc2ccc(-c3cccc(Cl)c3)[nH]2)CC1
Ki [2]: 4.4 nM | ED50 [3]: > 100 mg/kg

O=C(CCCN1CCN(c2cccc3ccoc23)CC1)c1ccc(F)cc1
Na+ ratio [5]: 1.4 | Ki [6]: 8.2 nM | ED50 [4]: 5 mg/kg | ED50 [1]: 5.6 mg/kg | Ki [7]: 1.5 nM | Ki [2]: 5.1 nM | ED50 [3]: 7.6 mg/kg

O=C(c1ccc(F)cc1)C1CCN(Cc2ccc(-c3ccc(F)cc3)[nH]2)CC1
Ki [2]: 12 nM | ED50 [3]: 34 mg/kg

COc1ccccc1C1CCN(Cc2ccc(-c3ccccc3)[nH]2)CC1
ED50 [4]: 1.7 mg/kg | Ki [2]: 1 nM | ED50 [3]: 100 mg/kg

COc1ccccc1N1CCN(Cc2ccc(-c3ccc(C(C)C)cc3)[nH]2)CC1
ED50 [1]: > 100 mg/kg | Ki [2]: 59 nM

COc1ccccc1N1CCN(Cc2ccc(-c3ccc(C(F)(F)F)cc3)[nH]2)CC1
Ki [2]: 25 nM | ED50 [3]: 45 mg/kg

O=C(c1ccc(F)cc1)N1CCN(Cc2ccc(-c3ccc(F)cc3)[nH]2)CC1
Ki [2]: 120 nM | ED50 [3]: 34 mg/kg

CCCn1c(CN2CCN(c3ccccc3OC)CC2)ccc1-c1ccc(F)cc1
ED50 [1]: > 50 mg/kg | Ki [2]: 110 nM

COc1ccccc1N1CCN(Cc2ccc(-c3c(F)cccc3F)[nH]2)CC1
Ki [2]: 1.1 nM | ED50 [3]: 30 mg/kg

Fc1ccc(-c2ccc(CN3CCN(c4cccc5ccoc45)CC3)[nH]2)cc1 [ELOPIPRAZOLE]
Na+ ratio [5]: 2 | Ki [6]: 120 nM | ED50 [4]: 2.3 mg/kg | ED50 [1]: 5.4 mg/kg | Ki [7]: 220 nM | ED50 [8]: > 54 mg/kg | Ki [2]: 0.45 nM | ED50 [3]: 2.5 mg/kg

COc1ccccc1N1CCN(CCCC(=O)c2ccc(F)cc2)CC1 [FLUANISONE]
Na+ ratio [5]: 1.4 | Ki [2]: 2.4 nM

OCCN1CCN(Cc2ccc(-c3ccc(F)cc3)[nH]2)CC1
ED50 [1]: > 100 mg/kg | Ki [2]: 31000 nM

COc1ccccc1N1CCN(CCNC(=O)c2ccc(F)cc2)CC1
ED50 [1]: 0.7 mg/kg

COc1ccccc1N1CCN(Cc2ccc(-c3ccccc3)[nH]2)CC1
ED50 [4]: 0.4 mg/kg | ED50 [1]: 1.9 mg/kg | Ki [2]: 0.76 nM | ED50 [3]: 13 mg/kg

COc1ccccc1N1CCN(Cc2ccc(-c3ccc(F)cc3)[nH]2)CC1
Na+ ratio [5]: 2.3 | ED50 [8]: > 23 mg/kg | Ki [2]: 0.96 nM

Fc1ccc(-c2ccc(CN3CCN(c4cccc(C(F)(F)F)c4)CC3)[nH]2)cc1
Ki [2]: 19 nM | ED50 [3]: 21 mg/kg

Fc1ccc(-c2ccc(CN3CCC(c4ccccc4)CC3)[nH]2)cc1
ED50 [1]: > 100 mg/kg | Ki [2]: 11 nM
